Values quoted from earlier work, collected in US6599496B2, “Endoscopy tissue stain” (Chek-Med Systems, Inc., priority 1999, dated 2003).

Test system: colon
Conditions: Hammond et al.

In the case of `CC1(C)C(/C=C/C=C/C=C/C=C2\N(CCCCS(=O)(=O)O)c3ccc4ccccc4c3C2(C)C)=[N+](CCCCS(=O)(=O)[O-])c2ccc3ccccc3c21` [Indocyanine green], the “permanence of the marking of lesions of the colon” value is given as “does not have long term permanence”.
